{"source": "patent US6033823A", "about": "“Mutated penicillin G acylase genes” (priority 1994, dated 2000)", "key": {"[1]": {"target": "T1, Alcaligenes faecalis Penicillin G acylase mutant B:L56G (Alcaligenes faecalis, UniProt O34142, L321G)", "T1 construct": "alpha 202 aa, beta 551 aa; recombinant, E. coli host", "T1 sequence (O34142 27-228)": "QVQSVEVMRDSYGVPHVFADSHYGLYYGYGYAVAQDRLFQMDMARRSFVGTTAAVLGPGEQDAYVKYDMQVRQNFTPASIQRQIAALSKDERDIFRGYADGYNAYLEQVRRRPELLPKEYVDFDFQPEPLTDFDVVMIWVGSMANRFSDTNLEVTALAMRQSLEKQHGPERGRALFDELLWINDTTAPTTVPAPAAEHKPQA", "T1 sequence (O34142 266-816 L321G)": "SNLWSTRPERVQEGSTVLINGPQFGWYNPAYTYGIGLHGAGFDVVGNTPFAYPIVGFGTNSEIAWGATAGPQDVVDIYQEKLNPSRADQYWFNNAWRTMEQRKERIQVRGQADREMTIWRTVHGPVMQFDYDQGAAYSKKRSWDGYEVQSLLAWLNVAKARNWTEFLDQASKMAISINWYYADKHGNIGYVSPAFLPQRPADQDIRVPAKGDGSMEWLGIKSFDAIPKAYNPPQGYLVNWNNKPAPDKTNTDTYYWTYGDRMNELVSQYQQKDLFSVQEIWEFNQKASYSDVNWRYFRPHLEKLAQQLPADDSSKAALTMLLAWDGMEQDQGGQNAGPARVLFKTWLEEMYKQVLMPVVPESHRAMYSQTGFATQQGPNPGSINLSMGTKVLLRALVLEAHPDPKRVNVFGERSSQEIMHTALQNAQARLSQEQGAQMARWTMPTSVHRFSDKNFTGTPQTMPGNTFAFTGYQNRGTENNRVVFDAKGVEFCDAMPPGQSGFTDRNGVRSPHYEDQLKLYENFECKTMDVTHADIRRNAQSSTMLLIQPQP", "experiment": "NIPAB kinetics and phenylacetic acid product inhibition, mutant B:L56G", "assay_type": "biochemical", "settings": "from progress curves of NIPAB deacylation, 25° C., 0.1 M NaH2PO4.H2O buffer pH 7.5, read-out: Ki Phenylacetic acid (inhibition constant, dissociation constant)", "procedure": "In a continuous assay Penicillin G acylase was assayed spectro-fotometrically with the chromogenic substrate NIPAB [6-nitro-3-phenylacetamido-benzoic acid]. The liberation of 3-amino-6-nitrobenzoic acid was monitored by measuring the extinction at 405 nm in a Kontron 610 kinetic spectrofotometer. Measuring maximal rate, the assays were performed at 25° C. using 20 mM NaH2 PO4.H2 O at pH 7.5 with 20 mM NIPAB and 100 μl enzym solution (at a proper dilution). Initial rate measurements were performed with varying concentration of NIPAB.\nInitial rate measurements were performed with excess substrate over the enzyme. Catalytic parameters were derived from least-squares fitting of the measured initial rates plotted for various substrate concentrations according to the Michaelis-Menten equation.\nThe complete conversion of NIPAB was followed as a funtion of time at 20, 50 and 100 μM NIPAB by following the increase in absorbtion at 405 nm. Products of this conversion are phenylacetic acid and 3-amino-6-nitrobenzoic acid. The conversion was performed at 25° C. in 0.1 M NaH2 PO4.H2 O buffer pH 7.5. The progress curves of the deacylation of NIPAB could be fitted very well when product inhibition by phenylacetic acid was taken into account. […]"}, "[2]": {"target": "T2, Alcaligenes faecalis Penicillin G acylase, wild type (α subunit SEQ ID NO:27, β subunit SEQ ID NO:32) (Alcaligenes faecalis, UniProt O34142)", "T2 construct": "alpha 202 aa, beta 551 aa; likely recombinant, E. coli host", "T2 sequence (O34142 27-228)": "T1 sequence (O34142 27-228)", "T2 sequence (O34142 266-816)": "T1 sequence (O34142 266-816 L321G) with G56L", "experiment": "Deacylation kinetics and phenylacetic acid product inhibition, wild type PenG acylase", "assay_type": "biochemical", "settings": "wt AF; from progress curves of NIPAB deacylation, 25° C., 0.1 M NaH2PO4.H2O buffer pH 7.5; read-out: Ki Phenylacetic acid (inhibition constant, dissociation constant)", "procedure": "In order to determine enzymatic activity the acylases were incubated with substrate at room temperature in buffered solution. In case β-lactamase impurity was expected to be present in the enzyme preparations, 1.0 mM -lactamase inhibitor 6-bromo-penicillanic acid was added to the assay. The reactions were stopped by adding an excess PMSF. For some mutants which were less sensitive to PMSF inhibition, the reactions were stopped by adding 0.5 M HCl or 0.5 M acetic acid until the pH was between 3 and 4. When reactions were subsequently analysed by HPLC, the reactions were stopped by dilution with the correponding elution solvent (see table 1). […]\nThe composition of the reaction mixtures was determined by high-performanceliquid chromatography (HPLC)(table 1). Concentrations were determined by using standards of known concentration.\nIn a continuous assay Penicillin G acylase was assayed spectro-fotometrically with the chromogenic substrate NIPAB [6-nitro-3-phenylacetamido-benzoic acid]. The liberation of 3-amino-6-nitrobenzoic acid was monitored by measuring the extinction at 405 nm in a Kontron 610 kinetic spectrofotometer. […]\nInitial rate measurements were performed with excess substrate over the enzyme. Catalytic parameters were derived from least-squares fitting of the measured initial rates plotted for various substrate concentrations according to the Michaelis-Menten equation. […]"}}, "note": "Numbering of substitutions follows the chain as printed.", "data": [{"smiles": "O=C(O)Cc1ccccc1", "note": "[phenylacetic acid]", "values": [{"measurement": "Ki", "setting": "[1]", "value": 55, "unit": "µM"}, {"measurement": "Ki", "setting": "[2]", "value": 11, "unit": "µM"}]}]}
